The test system of data set [1] is isolated depolarized artery of the rabbit's ear. The data set is described as follows: decrease in perfusion pressure (calcium-inhibitive effect) on the isolated depolarized artery of the rabbit's ear. The note with it: Table 1; single dose of 10 μg injected into the perfusion system; hyperpotassic depolarizing solution; average of at least three artery fragments; measured at peak of action. The method, then:
The calcium-inhibitive effect was researched in vitro using the method described by J. M. Van Neuten (Eur. J. Pharmacol., 1969, 6, 286) on the isolated depolarized artery of the rabbit's ear:
A fragment of the central artery of the ear was cannulated and suspended in 100 ml of a Tyrode solution [NaCl: 136.90 mmole/l; KCl: 2.68 mmole/l; CaCl2 : 3.60 mmole/l; MgCl2 : 1.04 mmole/l; NaH2 PO4 : 0.42 mmole/l; glucose: 5.55 mmole/l, NaHCO3 : 11.90 mmole/l ]. The fragment was oxygenated (O2 : 95%; CO2 : 5%) and perfused with a constant 2-ml/minute flow of Tyrode at 37° C. Pressure changes in the perfusion circuit were recorded continuously using a pressure sensor. After an equilibration period, the Tyrode was replaced with a hyperpotassic depolarizing solution [NaCl: 39.33 mmole/l; KCl: 99.83 mmole/l; CaCl2 : 3.60 mmole/l; MgCl2 : 1.04 mmole/l; NaH2 PO4 : 0.42 mmole/l; glucose: 5.55 mmole/l; NaHCO3 : 11.90 mmole/l ], which, because of intracellular calcium penetration, caused significant and durable vasoconstriction, antagonized by a calcium inhibitor. The products according to the invention were tested in a single dose of 10 μg administered by injection into the perfusion system, at a rate of 0.1 ml for 10 seconds. […] The effects of the products according to the invention on vasoconstriction induced by the hyperpotassic solution were monitored for several hours. The intensity was measured at the peak of their action.
Each product was tested on at least three artery fragments. Table I includes the average decreases in perfusion pressure observed for a few products according to the invention.

Another data set has as its target calmodulin (Bos taurus, UniProt P62157). The data set is described as follows: anti-calmodulin activity (calmodulin activation of Type I cardiac phosphodiesterase). The class given is biochemical. The method, then: The principle of the method used is the activating effect calmodulin has on the basic enzyme activity of Type I cardiac phosphodiesterase (H. C. Ho et al., Biochim. Biophys. Acta 1976, 429, 461). Enzyme activity is measured using the W. J. Thomson and H. M. Appleman technique (Biochemistry, 1971, 10, 311).

Data set [2] can be described thus: acute oral toxicity (lethal dose 50) in rats. The note with it: rat, in vivo. The source says:
Thus, the compound in example 10 has a lethal dose 50 in rats greater than 1 g/kg when administered orally.

Structures can show the parent of a compound that is named as a salt. A value given as a limit tells only on which side of the number the result lay.

Results on eight compounds are retold here after patent US4957927A, “(Diarylmethoxy alkyl)-1-pyrrolidines and piperidines having cardiovascular activity” (Lipha, Lyonnaise Industrielle Pharmaceutique, priority 1988, dated 1990).

`COc1cccc(C2CCN(CCOC(c3ccccc3)c3ccccc3)C2)c1.O=C(O)C(=O)O` (stereo not shown) [Example 1, 1-[2-(diphenylmethoxy)ethyl]-3-(3-methoxyphenyl)pyrrolidine oxalate]: the “% drop in perfusion pressure ± standard error” value in data set [1] is 56 ± 6%.
For `COc1cc(OC)cc(C2CCN(CCOC(c3ccc(F)cc3)c3ccc(F)cc3)C2)c1` (stereo not shown) [Example 15, 1-[2-[bis(4-fluorophenyl)methoxy]ethyl]-3-(3,5-dimethoxyphenyl)pyrrolidine fumarate], the “% drop in perfusion pressure ± standard error” value in data set [1] worked out at 52 ± 5%.
As a reminder, the IC50 is the concentration needed to halve the response being measured. A lower IC50 goes with greater potency. What is called LD50 is the dose at which mortality reaches 50%. Read a low LD50 as greater toxicity. On to `COc1cccc(C2CCN(CCOC(c3ccc(F)cc3)c3ccc(F)cc3)C2)c1` (stereo not shown) [Example 10, 1-[2-[bis(4-fluorophenyl)methoxy]ethyl]-3-(3-methoxyphenyl)pyrrolidine], for which the “% drop in perfusion pressure ± standard error” value in data set [1] was 59 ± 4%. The compound also had an IC50 against calmodulin of 83 µM. The LD50 in data set [2] is over 1000 mg/kg.
As to `COc1cccc(C2CCCN2CCOC(c2ccccc2)c2ccccc2)c1` (stereo not shown) [Example 11, 1-[2-(diphenylmethoxy)ethyl]-2-(3-methoxyphenyl)pyrrolidine], the “% drop in perfusion pressure ± standard error” value in data set [1] is listed as 56 ± 5%.
`COc1ccccc1C1CCN(CCOC(c2ccccc2)c2ccccc2)C1` (stereo not shown) [Example 13, 1-[2-diphenylmethoxy)ethyl]-3-(2-methoxyphenyl) pyrrolidine maleate]: in data set [1], the “% drop in perfusion pressure ± standard error” value turned out to be 58 ± 5%.
The same measure, in the same setting: next, `CC(C)Oc1cccc(C2CCN(CCOC(c3ccc(F)cc3)c3ccc(F)cc3)C2)c1` (stereo not shown) [Example 14, 1-[2-[bis(4-fluorophenyl)methoxy]ethyl]-3-(3-isopropoxyphenyl)pyrrolidine]: 54 ± 5%.
Consider `COc1ccc(C2CCN(CCOC(c3ccccc3)c3ccccc3)C2)cc1OC` (stereo not shown) [Example 4, 3-(3,4dimethoxyphenyl)-1-[2-diphenylmethoxy)ethyl]pyrrolidine oxalate], for which, in data set [1], the “% drop in perfusion pressure ± standard error” value is 54 ± 5%.
For `Fc1ccc(C(c2ccc(F)cc2)N2CCN(C/C=C/c3ccccc3)CC2)cc1` [flunarizine, reference compound], in data set [1], the “% drop in perfusion pressure ± standard error” value amounted to 41 ± 4%.
